Assay results from patent US5646308A, “Benzopyran derivatives” (Chugai Seiyaku Kabushiki Kaisha, priority 1992, dated 1997).

Assays:
[1] = test system: histamine-induced increase in respiratory tract inner pressure; assay: Study on Antiasthmatic Activity: inhibition of histamine-induced increase in respiratory tract inner pressure; format: in vivo, male hartley guinea pig; conditions: Cavia porcellus, 10 min; anesthetized guinea pig, intraduodenal, 0.3% CMC suspension; histamine 5 to 10 μg/kg i.v. every 10 minutes; read-out: ED50 (dose for 50% inhibition of the histamine-induced increase in respiratory tract inner pressure)
Procedure: Study on Antiasthmatic Activity
A mid-line incision was made in the neck of a male hartley guinea pig (600 to 800 g, CRJ) under anesthesia with […] (40 mg/kg, i.p.). The trachea, the […], and the left carotid artery were exposed, and a cannula was inserted into each of them. The inner pressure of the respiratory tract was measured while applying artificial respiration through the tracheal cannula. The blood pressure was measured through the arterial cannula, and the heart rate was determined from the pulse. Pentobarbital for anesthesia maintenance was continuously administered through the venous cannula. A mid-line incision was made on the abdomen to expose the duodenum, and a canuula for intraduodenal administration was inserted thereinto. After the postoperative convalescene of 30 to 60 minutes, histamine (5 to 10 μg/kg) was intravenously administered every 10 minutes. After it was confirmed that a respiratory tract inner pressure rise reaction was stably obtained, a test compound in the form of a 0.3% CMC suspension was intraduodenally administered. The histamine dose was so selected that the respiratory tract inner pressure might rise to 20 to 40 cmH2 O after every intravenous administration. After administration of the test compound, intrvenous administration of histamine at 10 minutes intervals was continued. The histamine-induced increase in respiratory tract inner pressure after the administration of the test compound was compared with that before the administration.

Rat Aorta = assay: Test with Excised Aorta of Rat: relaxation of lasting KCl-induced contraction; parameters: species or system male Sprague Dawley rat; conditions: rat thoracic aorta rings, 30 mM KCl contraction, Krebs-Henseleit, 37° C., tension 2 g; read-out: IC50 (50% inhibitory concentration, relaxation of lasting contraction following KCl addition), Rat Aorta
Procedure: Test with Excised Aorta of Rat
The thoracic aorta was excised from a male Sprague Dawley rat (450 to 600 g) and cut into 2 mm wide ring preparations. Each preparation was suspended in 10 ml of an organ bath containing a Krebs-Henseleit solution (NaCl: 119; KCl: 4.8; CaCl2 ·2H2 O: 2.53; KH2 PO4 : 1.2; MgSO4 ·7H2 O: 1.2; NaHCO3 : 24.8; glucose: 10 (mM); 37° C.) under a tension of 2 g, and a mixed gas of 95% O2 and 5% CO2 was bubbled therethrough. Isometric contractions of the preparation were recorded by means of an FD pick-up. […] The activity of a test compound to relax a lasting contraction following the KCl addition was evaluated by obtaining a 50% inhibitory concentration (IC50).
The compounds of the present invention obtained in the foregoing Examples and, for comparison, Cromakalim were used as test compounds.

[2] = test system: Guinea Pig Tracheal Muscle; assay: Test with Guinea Pig Tracheal Muscle: relaxing activity on spontaneous tension; parameters: species or system male Hartley guinea pig; conditions: Cavia porcellus, relaxation by 1 mM aminophylline = 100%, 37° C., tension 1 g, read-out: IC50 (concentration exhibiting 50% relaxing activity), Guinea Pig Tracheal Muscle
Procedure: Test with Guinea Pig Tracheal Muscle
The trachea was excised from a male Hartley guinea pig (450 to 550 g) to make chain preparations. The preparation was suspended In a bath containing the same Krebs-henseleit solution as used in Test Example 1 (37° C.) through which a mixed gas of 95% O2 and 5% CO2 was bubbled. Isometric contractions of the preparation were recorded under a tension of 1 g.
The same test compounds as used in Test Example 1 were used.

| Structure (SMILES) | ED50 [1] [mg/kg] | IC50 (Rat Aorta) [µM] | IC50 [2] [µM] |
| --- | --- | --- | --- |
| CC1(C)Oc2ccc(C#N)cc2[C@@H](N2CCCC2=O)[C@@H]1O (relative stereo) [Cromakalim, reference compound] | 1 to 3 | 0.18 | 0.79 |
| CNC(=O)C1=CC(C)(COC)Oc2ccc([N+](=O)[O-])cc21 (stereo not shown) [1(2), 2-methoxymethyl-N,2-dimethyl-6-nitro-2H-1-benzopyran-4-carboxamide] | 0.1 | 0.059 | 0.086 |
| CNC(=S)C1=CC(CF)(CF)Oc2ccc([N+](=O)[O-])cc21 [Example 8, 2,2-Bis(fluoromethyl)-N-methyl-6-nitro-2H-1-benzopyran-4-carbothioamide] |  | 0.00028 | 0.003 |
| CNC(=O)C1=CC(CF)(CF)Oc2ccc([N+](=O)[O-])cc21 [Example 7, 2,2-Bis(fluoromethyl)-N-methyl-6-nitro-2H-1-benzopyran-4-carboxamide] | 0.01 | 0.006 | 0.01 |
| CN=C(NC#N)C1=CC(C)(COC)Oc2ccc([N+](=O)[O-])cc21 (stereo not shown) [Example 3, N-Cyano-2-methoxymethyl-N',2-dimethyl-6-nitro-2H-1-benzopyran-4-amidine] |  | 0.097 | 0.26 |
| CNC(=S)C1=CC(C)(COC)Oc2ccc([N+](=O)[O-])cc21 (stereo not shown) [Example 2, 2-Methoxymethyl-N,2-dimethyl-6-nitro-2H-1-benzopyran-4-carbothioamide] |  | 0.017 | 0.029 |
| N#CCCNC(=O)C1=CC(CF)(CF)Oc2ccc([N+](=O)[O-])cc21 [Example 10, N-(2-cyanoethyl)-2,2-bis(fluoromethyl)-6-nitro-2H-1-benzopyran-4-carboxamide] |  | 0.0021 | 0.005 |
| CN=C(NC#N)C1=CC(CF)(CF)Oc2ccc([N+](=O)[O-])cc21 [Example 9, N-Cyano-2,2-bis(fluoromethyl)-N'-methyl-6-nitro-2H-1-benzopyran-4-amidine] |  | 0.014 | 0.041 |
